This is an account of results in BindingDB's records for patent US20250059156 (Sensorium Therapeutics, 2025).

This assay concerns the target Sodium-dependent serotonin transporter (Homo sapiens, UniProt P31645). Briefly: SERT Inhibition Assay. The method, then: SERT inhibition was measured using a Neruotransmitter Transportation Fluorescence assay. […] Compounds were prepared by in assay buffer (20 mM HEPES, 0.1% BSA). The compounds were added to the plated cells and incubated for 30 minutes at 37° C. 25 μL of dye solution (Molecular Devices Neurotransmitter Transporter Uptake Assay Kit) was added per well and incubated for 30 minutes at 37° C. The plates were then read on a plate reader.

Sodium-dependent serotonin transporter, sequence (P31645 whole entry): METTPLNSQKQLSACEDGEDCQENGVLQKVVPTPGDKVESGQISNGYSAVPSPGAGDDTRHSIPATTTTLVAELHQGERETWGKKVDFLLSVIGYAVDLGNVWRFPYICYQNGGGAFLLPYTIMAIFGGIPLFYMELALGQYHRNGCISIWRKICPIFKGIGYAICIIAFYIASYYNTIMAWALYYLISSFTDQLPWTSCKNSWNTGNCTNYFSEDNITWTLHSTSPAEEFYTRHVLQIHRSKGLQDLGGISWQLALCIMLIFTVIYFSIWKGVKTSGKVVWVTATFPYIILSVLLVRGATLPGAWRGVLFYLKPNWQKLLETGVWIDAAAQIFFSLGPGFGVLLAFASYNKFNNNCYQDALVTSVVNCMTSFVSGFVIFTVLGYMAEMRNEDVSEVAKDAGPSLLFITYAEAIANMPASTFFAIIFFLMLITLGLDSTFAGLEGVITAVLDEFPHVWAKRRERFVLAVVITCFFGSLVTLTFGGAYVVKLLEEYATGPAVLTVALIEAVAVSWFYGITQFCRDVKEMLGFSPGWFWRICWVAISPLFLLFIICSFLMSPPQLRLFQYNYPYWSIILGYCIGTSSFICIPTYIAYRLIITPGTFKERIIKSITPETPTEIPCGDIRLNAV

`COc1ccc([C@]23CCN(C)[C@H]2[C@H]2CCC[C@@H]3CC2=O)cc1OC` [US20250059156, Compound 220] showed an IC50 of 0.1 to 0.5 µM.
The molecule `COc1ccc([C@@]23CCN(C)[C@@H]2[C@@H]2CCC[C@H]3CC2=O)cc1OC` [US20250059156, Compound 221] returned an IC50 below 0.05 µM.

As a reminder, the IC50 is the midpoint of a concentration-inhibition curve. A low value points to inhibition by little substance.
